# Results as given in publication PMC11822212, “High-throughput screening identifies Aurora kinase B as a critical therapeutic target for Merkel cell carcinoma” (Nature Communications, 2025).
# Structures can show the parent of a compound that is named as a salt.
# Key:
# [1] = test system: MKL-2 cells (VP-MCC); experiment: qHTS cell viability (CellTiter-Glo, 72 h; primary and follow-up small molecule screen); assay type: cell-based, human
# [2] = test system: MCC26 cells (VN-MCC); experiment: as above; assay type: cell-based, human
# [3] = test system: MKL-1 cells (VP-MCC); experiment: as above; assay type: cell-based, human
# [4] = test system: control cell lines (HACAT, HEK293T, CRL-7250, NIH-3T3); experiment: qHTS cell viability, control cell lines as a group (mean AUC, Control.avg); assay type: cell-based; conditions: NPC library; mean AUC of control cell lines
# [5] = test system: six MCC cell lines and four control cell lines; experiment: qHTS cell viability, all 10 cell lines screened; assay type: cell-based; conditions: NPC library
# [6] = test system: WAGA cells (VP-MCC); experiment: qHTS cell viability (CellTiter-Glo, 72 h; primary and follow-up small molecule screen); assay type: cell-based, human
# [7] = test system: CRL-7250 cells; experiment: qHTS cell viability (CellTiter-Glo, 72 h; primary screen), control cell line; assay type: cell-based
# [8] = test system: MCC cell lines (WAGA, MKL-1, MKL-2, MCC13, MCC26, UISO); experiment: qHTS cell viability, all six MCC cell lines as a group (mean AUC, MCC.avg); assay type: cell-based, human; conditions: NPC library
# [9] = test system: VP-MCC cell lines (WAGA, MKL-1, MKL-2); experiment: qHTS cell viability, VP-MCC cell lines as a group (mean AUC, VP.MCC.avg); assay type: cell-based, human; conditions: for VP-MCC_Avg_AUC: mean AUC of VP-MCC cell lines
# [10] = test system: HEK293T cells; experiment: qHTS cell viability (CellTiter-Glo, 72 h; primary screen), control cell line; assay type: cell-based, human
# [11] = test system: UISO cells (VN-MCC); experiment: qHTS cell viability (CellTiter-Glo, 72 h; primary and follow-up small molecule screen); assay type: cell-based, human
# [12] = test system: NIH-3T3 cells; experiment: qHTS cell viability (CellTiter-Glo, 72 h; primary screen), control cell line; assay type: cell-based, mouse
# [13] = test system: VN-MCC cell lines (MCC13, MCC26, UISO); experiment: qHTS cell viability, VN-MCC cell lines as a group (mean AUC, VN.MCC.avg); assay type: cell-based, human; conditions: for VN-MCC_Avg_AUC: mean AUC of VN-MCC cell lines
# [14] = test system: HACAT cells; experiment: qHTS cell viability (CellTiter-Glo, 72 h; primary screen), control cell line; assay type: cell-based, human
# [15] = test system: MCC13 cells (VN-MCC); experiment: qHTS cell viability (CellTiter-Glo, 72 h; primary and follow-up small molecule screen); assay type: cell-based, human
# [16] = NPC library, qHTS dose-response AUC, MKL2
# [17] = NPC library; qHTS dose-response AUC, MCC26
# [18] = NPC library, qHTS dose-response AUC, MKL1
# [19] = therapeutic window: Control avg AUC minus MCC avg AUC
# [20] = NPC library, qHTS dose-response AUC, WAGA
# [21] = NPC library, qHTS dose-response AUC, CRL7250 control
# [22] = NPC library, therapeutic window: Control avg AUC minus VP-MCC avg AUC
# [23] = NPC library; qHTS dose-response AUC, HEK293T control
# [24] = NPC library, qHTS dose-response AUC, UISO
# [25] = NPC library, qHTS dose-response AUC, NIH3T3 control
# [26] = NPC library, therapeutic window: Control avg AUC minus VN-MCC avg AUC
# [27] = NPC library, qHTS dose-response AUC, HACAT control
# [28] = NPC library, qHTS dose-response AUC, MCC13
# [29] = NPC library, 8-point DRC, area under dose-response curve
# [30] = NPC library, 8-point DRC, control cell line
smiles,measurement,setting,value
[H]/N=C(/NCCCCC)N/N=C/c1c[nH]c2ccc(OC)cc12 [Tegaserod],MKL2_AUC,[1]; [16],260.213
same,MCC26_AUC,[2]; [17],428.067
same,MKL1_AUC,[3]; [18],250.061
same,Control_Avg_AUC,[4],420.238
same,Control-MCC,[5]; [19],71.3268
same,WAGA_AUC,[6]; [20],279.713
same,CRL7250_AUC,[7]; [21],432.653
same,MCC_Avg_AUC,[8]; mean AUC of six MCC cell lines,348.911
same,VP-MCC_Avg_AUC,[9]; NPC library,263.329
same,Control-VP-MCC,[9]; [22],156.909
same,HEK293T_AUC,[10]; [23],405.853
same,UISO_AUC,[11]; [24],401.587
same,NIH3T3_AUC,[12]; [25],444.55
same,VN-MCC_Avg_AUC,[13]; NPC library,434.493
same,Control-VN-MCC,[13]; [26],-14.2555
same,HACAT_AUC,[14]; [27],397.896
same,MCC13_AUC,[15]; [28],473.827
CSc1ccc2c(c1)N(CCC1CCCCN1C)c1ccccc1S2 (centres unmarked) [Thioridazine],MKL2_AUC,[1]; [29],356.973
same,MKL2_AUC,[1]; [16],356.974
same,MKL2_AUC,"[1]; area under the dose-response curve, MKL-2 cells, AUC<450 = reduced viability",356.974
same,MCC26_AUC,[2]; [29],403.828
same,MCC26_AUC,"[2]; NPC library, qHTS dose-response AUC, MCC26",403.828
same,MCC26_AUC,"[2]; area under the dose-response curve, MCC26 cells; AUC<450 = reduced viability",403.828
same,MKL1_AUC,[3]; [29],412.834
same,MKL1_AUC,[3]; [18],412.834
same,MKL1_AUC,"[3]; area under the dose-response curve, MKL-1 cells, AUC<450 = reduced viability",412.834
same,Control_Avg_AUC,[4],459.509
same,Control-MCC,[5]; Control AUC minus MCC AUC (therapeutic window),60.2868
same,WAGA_AUC,[6]; [29],416.169
same,WAGA_AUC,[6]; [20],416.169
same,WAGA_AUC,"[6]; area under the dose-response curve, WAGA cells, AUC<450 = reduced viability",416.169
same,CRL7250_AUC,[7]; [30],474.374
same,CRL7250_AUC,[7]; [21],474.374
same,CRL7250_AUC,"[7]; area under the dose-response curve, CRL7250 control cells, AUC<450 = reduced viability",474.374
same,MCC_Avg_AUC,[8]; mean AUC of all 6 MCC cell lines,399.222
same,MCC_Avg_AUC,[8]; mean AUC of six MCC cell lines,399.222
same,Control-VP-MCC,[9]; Control AUC minus VP-MCC AUC,64.1836
same,Control-VP-MCC,"[9]; NPC library, Control AUC minus VP-MCC AUC (therapeutic window)",64.1836
same,HEK293T_AUC,[10]; [30],452.051
same,HEK293T_AUC,"[10]; NPC library, qHTS dose-response AUC, HEK293T control",452.051
same,HEK293T_AUC,"[10]; area under the dose-response curve, HEK293T control cells; AUC<450 = reduced viability",452.051
same,UISO_AUC,[11]; [29],400.342
same,UISO_AUC,[11]; [24],400.342
same,UISO_AUC,"[11]; area under the dose-response curve, UISO cells, AUC<450 = reduced viability",400.342
same,NIH3T3_AUC,[12]; [30],457.937
same,NIH3T3_AUC,[12]; [25],457.938
same,NIH3T3_AUC,"[12]; area under the dose-response curve, NIH3T3 control cells, AUC<450 = reduced viability",457.938
same,Control-VN-MCC,[13]; Control AUC minus VN-MCC AUC,56.3901
same,Control-VN-MCC,"[13]; NPC library, Control AUC minus VN-MCC AUC (therapeutic window)",56.3901
same,VN-MCC_Avg_AUC,[13]; NPC library,403.119
same,HACAT_AUC,[14]; [30],453.674
same,HACAT_AUC,[14]; [27],453.674
same,HACAT_AUC,"[14]; area under the dose-response curve, HACAT control cells, AUC<450 = reduced viability",453.674
same,MCC13_AUC,[15]; [29],405.187
same,MCC13_AUC,[15]; [28],405.187
same,MCC13_AUC,"[15]; area under the dose-response curve, MCC13 cells, AUC<450 = reduced viability",405.187
Cc1ccsc1C(=CCCN1CCC[C@@H](C(=O)O)C1)c1sccc1C [Tiagabine hydrochloride],MKL2_AUC,[1]; [16],263.998
same,MCC26_AUC,[2]; [17],535.626
same,MKL1_AUC,[3]; [18],342.483
same,Control_Avg_AUC,[4],457.564
same,Control-MCC,[5]; [19],34.0617
same,WAGA_AUC,[6]; [20],356.213
same,CRL7250_AUC,[7]; [21],426.76
same,MCC_Avg_AUC,[8]; mean AUC of six MCC cell lines,423.502
same,VP-MCC_Avg_AUC,[9]; NPC library,320.898
same,Control-VP-MCC,[9]; [22],136.666
same,HEK293T_AUC,[10]; [23],447.539
same,UISO_AUC,[11]; [24],537.732
same,NIH3T3_AUC,[12]; [25],484.889
same,VN-MCC_Avg_AUC,[13]; NPC library,526.106
same,Control-VN-MCC,[13]; [26],-68.5423
same,HACAT_AUC,[14]; [27],471.067
same,MCC13_AUC,[15]; [28],504.961
Clc1ccc(C(Cn2ccnc2)OCc2ccsc2Cl)c(Cl)c1 (centres unmarked) [Tioconazole],MKL2_AUC,[1]; [16],282.208
same,MCC26_AUC,[2]; [17],501.8
same,MKL1_AUC,[3]; [18],310.311
same,Control_Avg_AUC,[4],467.697
same,Control-MCC,[5]; [19],97.8731
same,WAGA_AUC,[6]; [20],248.268
same,CRL7250_AUC,[7]; [21],480.608
same,MCC_Avg_AUC,[8]; mean AUC of six MCC cell lines,369.824
same,VP-MCC_Avg_AUC,[9]; NPC library,280.262
same,Control-VP-MCC,[9]; [22],187.435
same,HEK293T_AUC,[10]; [23],456.797
same,UISO_AUC,[11]; [24],437.585
same,NIH3T3_AUC,[12]; [25],445.245
same,VN-MCC_Avg_AUC,[13]; NPC library,459.387
same,Control-VN-MCC,[13]; [26],8.311
same,HACAT_AUC,[14]; [27],488.14
same,MCC13_AUC,[15]; [28],438.775
c1ccc(CC2=NCCN2)cc1 [Tolazoline hydrochloride],MKL2_AUC,[1]; [16],397.927
same,MCC26_AUC,[2]; [17],395.361
same,MKL1_AUC,[3]; [18],395.582
same,Control_Avg_AUC,[4],460.352
same,Control-MCC,[5]; [19],39.4026
same,WAGA_AUC,[6]; [20],433.154
same,CRL7250_AUC,[7]; [21],475.841
same,MCC_Avg_AUC,[8]; mean AUC of six MCC cell lines,420.949
same,VP-MCC_Avg_AUC,[9]; NPC library,408.888
same,Control-VP-MCC,[9]; [22],51.4641
same,HEK293T_AUC,[10]; [23],454.352
same,UISO_AUC,[11]; [24],451.588
same,NIH3T3_AUC,[12]; [25],440.048
same,VN-MCC_Avg_AUC,[13]; NPC library,433.01
same,Control-VN-MCC,[13]; [26],27.3412
same,HACAT_AUC,[14]; [27],471.166
same,MCC13_AUC,[15]; [28],452.083
